The structures appear in SMILES notation. Like-named read-outs stand apart in the source and are kept apart here. Some results are limits rather than exact numbers.

For assay [1], the system named is K562 human chronic myeloid leukaemia cells. Briefly: In vitro cytotoxicity, MTT assay. In kind it is cell-based. Particulars: K562, 1 hour drug exposure, MTT after 4 days. The procedure:
K562 human chronic myeloid leukaemia cells were maintained in RPM1 1640 medium supplemented with 10% fetal calf serum and 2 mM glutamine at 37° C. in a humidified atmosphere containing 5% CO2 and were incubated with a specified dose of drug for 1 hour at 37° C. in the dark. The incubation was terminated by centrifugation (5 min, 300 g) and the cells were washed once with drug-free medium. Following the appropriate drug treatment, the cells were transferred to 96-well microtiter plates (10^4 cells per well, 8 wells per sample). Plates were then kept in the dark at 37° C. in a humidified atmosphere containing 5% CO2. The assay is based on the ability of viable cells to reduce a yellow soluble tetrazolium salt, 3-(4,5-dimethylthiazol-2-yl)-2,5-diphenyl-2H-tetrazolium bromide (MTT, Aldrich-Sigma), to an insoluble purple formazan precipitate. Following incubation of the plates for 4 days (to allow control cells to increase in number by approximately 10 fold), 20 μL of MTT solution (5 mg/mL in phosphate-buffered saline) was added to each well and the plates further incubated for 5 hours. The plates were then centrifuged for 5 minutes at 300 g and the bulk of the medium pipetted from the cell pellet leaving 10-20 μL per well. DMSO (200 μL) was added to each well and the samples agitated to ensure complete mixing. The optical density was then read at a wavelength of 550 nm on a Titertek Multiscan ELISA plate reader, and a dose-response curve was constructed.

Another assay concerns calf thymus DNA (CT-DNA). Briefly: DNA thermal denaturation (melting) studies. In kind it is binding. Particulars: CT-DNA 100 μM DNAp, compound 20 μM, 37 °C; for Induced ΔTm after incubation 0 hours: pH 7.00, 0 hours; for Induced ΔTm after incubation 4 hours: pH 7.00, 4 hours; for Induced ΔTm after incubation 18 hours: pH 7.00, 18 hours. Here is the method: The PBD agents were subjected to DNA thermal melting (denaturation) studies (Gregson, S. J., et al., Journal of Medicinal Chemistry, 44(5), 737-748 (2001); Jones, G. B., et al., Anti-Cancer Drug Design, 5(3), 249-264 (1990); McConnaughie, A. W. and; Jenkins, T. C. Journal of Medicinal Chemistry, 38(18), 3488-3501 (1995)) using calf thymus DNA (CT-DNA, type-1, highly polymerized sodium salt; 42% G+C [Sigma]) at a fixed 100 μM (DNAp=50 μM bp) concentration, determined using an extinction coefficient of 6600 (M phosphate)^−1 cm^−1 at 260 nm (Manzini, G., et al., Nucleic Acids Research, 11(24), 8861-8876 (1983)). Solutions were prepared in pH 7.00±0.01 aqueous buffer containing 10 mM NaH2PO4/Na2HPO4 and 1 mM EDTA. Working solutions containing CT-DNA and the test compound (20 μM) were incubated at 37.0±0.1° C. for 0 to 18 hours using an external water bath. Samples were monitored at 260 nm using a Varian-Cary 400 Bio spectrophotometer fitted with a Peltier heating accessory. Heating was applied at a rate of 1° C./min in the 45 to 98° C. temperature range, with optical and temperature data sampling at 200 ms intervals. A separate experiment was carried out using buffer alone, and this baseline was subtracted from each DNA melting curve before data treatment. Optical data were imported into the Origin 5 program (MicroCal Inc., Northampton, Mass.) for analysis. DNA helix→coil transition temperatures (Tm) were determined at the midpoint of the normalized melting profiles using a published analytical procedure (Jones, G. B., et al., Anti-Cancer Drug Design, 5(3), 249-264 (1990)). Results are given in table 1 as the mean±standard deviation from at least three determinations. Ligand-induced alterations in DNA melting behaviour (ΔTm) are given by ΔTm=Tm(DNA+ligand)−Tm(DNA), where the Tm value determined for free CT-DNA is 67.82±0.06° C. (averaged from >90 runs). All PBD compounds were dissolved in HPLC-grade MeOH to give working solutions containing ≦0.6% v/v MeOH; Tm results were corrected for the effects of MeOH co-solvent by using a linear correction term.
The above method was also carried out on the compounds of example 2, with all compounds being incubated for up to 72 hours.

In assay [2] the target is 262 bp DNA fragment (MS2F or MS2R) of MS2 plasmid. Briefly: DNase I footprinting on MS2 DNA fragment. In kind it is binding. The procedure:
The sequence selectivity of the six PBD-pyrrole conjugates (21, 23, 25, 27, 29) was evaluated by standard DNA footprinting on a fragment of MS2 as follows, in accordance with the technique described in Martin, C., et al., (Martin, C., et al., Biochemistry, 44(11), 4135-4147 (2005))
Forward (5′-[…]-3′) or reverse (5′-[…]-3′) primer was 5′-end labelled with ^32P by T4 polynucleotide kinase. Labelling mixture contained primer (5 pmol; Sigma-Genosys), 10× kinase buffer (1 μl; Promega), (γ-^32P)-ATP (2μ of 10 μCi/μl, 6000 Ci/mmol; Perkin Elmer Life Sciences), and T4 polynucleotide kinase (10 U; Promega) in a 10 μl final volume. Labelling mix was incubated at 37° C. for 30 minutes followed by inactivation of the kinase at 70° C. for 10 minutes. A 262 bp DNA fragment (MS2F or MS2R) was amplified from the MS2 plasmid using PCR with either labelled forward or reverse primer and the unlabelled primer as required. Reactions were comprised of labelled primer mix (10 μl), 10×PCR buffer (5 μl; Sigma), dNTPs (5 μl; 2.5 mM each of A, C, G and T, Amersham Pharmacia), unlabelled primer as required ([…]), MS2 plasmid template DNA (10 ng) and Taq DNA polymerase (5 U; Sigma) in a 50 μl final volume. Radiolabelled 262-mer was purified by non-denaturing polyacrylamide gel electrophoresis, elution, filtration and EtOH precipitation and was resuspended in a solution of Tris-HCl (10 mM) pH 7.4/NaCl (10 mM) to yield an activity of 200 counts per second per 5 μl when held up, in a pipette tip, to a capped Morgan series 900 mini-monitor.
For DNase I footprinting radiolabelled 262-mer (2 μl) was incubated overnight (16-18 h) with drug solution (388 μl) or in an aqueous buffer [HEPES (20 mM) pH 7.9, NaCl (50 mM), MgCl2 (1 mM), DTT (5 mM), 10% glycerol] in control reactions. Enzymatic cleavage was initiated by addition of DNase I solution (10 μl of 0.05 U/ml; Sigma) in aqueous NaCl (200 mM), MgCl2 (20 mM) and MnCl2 (20 mM) and halted with stop solution [40 μl of NaCl (2.25 M), EDTA (150 mM) pH 8.0, 0.57 μg/μl glycogen (0.57 μg/μl; Roche), poly(dl-dC).poly(dl-dC) DNA (19.3 ng/μl; Amersham Pharmacia)]. From this mixture, digested DNA fragments were prepared for electrophoresis following the protocol of Trauger & Dervan, and were loaded on to a preheated 8% denaturing polyacrylamide gel. Electrophoresis in 1×TBE buffer was allowed to proceed for 100 min at 70 W (1600-2000 V). The gel was the fixed in acetic acid (10% v/v) and methanol (10% v/v) for 15 minutes followed by being blotted onto Whatman 3 mM paper and vacuum-dried at 80° C. for 45 minutes.
Dried gels were stored at room temperature in phosphor storage screens (Molecular Dynamics) for a minimum period of 12 h. Data were collected from exposed screens using a Molecular Dynamics 425E Phosphorlmager and transferred to ImageQuant v1.2 software (Molecular Dynamics) for analysis. Data were expressed as the differential cleavage between control and sample lanes. Peaks were integrated and differential cleavage calculated as ln(fd)−ln(fc); (fd is the fractional cleavage at any particular bond in the presence of drug and fc is the fractional cleavage of the same bond in the control). Maxam-Gilbert G+A marker lanes were prepared in the usual fashion.
The vast majority of footprint sites are common features in the binding profiles of all six conjugates, with only a small number of sites being footprinted by a subset of the family. Even more unexpectedly, no site is footprinted by only one molecule (in fact, the fewest number of conjugates that bind at any single site is four). The differential cleavage plot provides footprinting profiles at a supramaximal concentration colour-coded for each conjugate which illustrates a striking degree of overlap. Although there is no conspicuous change in footprinting patterns as the number of pyrroles units in each conjugate increases, there are changes in two other features, namely, the apparent binding affinity and the width of the footprinted site. […]

Assay [3] has as its system 170 bp sequence of the human Topo-IIa promoter. Briefly: DNase I footprinting on Topo-IIa promoter (ICB1, ICB2 sites). In kind it is binding. The procedure: In a similar manner to Example 4, the affinity and sequence selectivity of certain compounds of examples 1 and 2 was evaluated by standard DNA footprinting on a 170 bp sequence of the human Topo-IIa promoter, in accordance with the technique described in Martin, C., et al.
Selected results are shown in FIG. 9, wherein the concentrations of the lanes were 0, 1.6, 8, 40, 200, 1000, 5000 and 25000 nM in each case.
The footprinting results allowed the identification of compounds that could potentially disrupt transcription factor binding at the ICB1 and ICB2 sites. […] These compounds are detailed below in table 3, showing the concentrations (μM) at which the PBD-heterocycle conjugates bind at ICB1 and ICB2.

Assay [4] relates to NF-Y binding at ICB2 of Topoisomerase IIα promoter. Briefly: NF-Y gel shift assay (EMSA) at ICB2.

The term IC50 denotes the point on the concentration scale where inhibition reaches its midpoint. As for `COC(=O)c1cc(NC(=O)CCCOc2cc3c(cc2OC)C(=O)N2CCC[C@H]2C=N3)cn1C` [Compound 21, (11aS) Methyl 4-[4-(7-methoxy-5-oxo-2,3,5,11a-tetrahydro-5H-pyrrolo[2,1-c][1,4]benzodiazepine-8-yloxy)-butyrylamino]-1-methyl-1H-pyrrole-2-carboxylate], in assay [1] (Homo sapiens), the IC50 was 51 nM. Besides, in the assay with calf thymus DNA (CT-DNA), the “Induced ΔTm after incubation 0 hours” value is 6.5 °C, the “Induced ΔTm after incubation 4 hours” value stood at 7.9 °C and the “Induced ΔTm after incubation 18 hours” value amounted to 8.1 °C. In addition, the IC50 in assay [2] (estimated by eye from footprint gel, read-out: DNase IC50 (apparent binding affinity)) is not below 10000 nM.
As for `COC(=O)c1cc(NC(=O)c2cc(NC(=O)c3cc(NC(=O)CCCOc4cc5c(cc4OC)C(=O)N4CCC[C@H]4C=N5)cn3C)cn2C)cn1C` [Compound 25, (11aS) Methyl 4-{[4-({4-[4-(7-Methoxy-6-oxo-2,3,5,11a-tetrahydro-5H-pyrrolo[2,1-c][1,4]benzodiazepine-8-yloxy)-butyrylamino]-1-methyl-1H-pyrrole-2-carbonyl]-amino)-1-methyl-1H-pyrrole-2-carbonyl]-amino}-1-methyl-1H-pyrrole-2-carboxylate], the IC50 in assay [1] amounted to 41 nM. Besides, in the assay with calf thymus DNA (CT-DNA), the “Induced ΔTm after incubation 0 hours” value turned out to be 17.3 °C, the “Induced ΔTm after incubation 4 hours” value came to 19.6 °C and the “Induced ΔTm after incubation 18 hours” value turned out to be 21.2 °C. Besides, in assay [2] (read-out: DNase IC50 (apparent binding affinity; 50% inhibition of DNase I-mediated cleavage), estimated by eye, site 5′-62CAATACACA70-3′), the IC50 was 30 to 100 nM.
In assay [1], `COC(=O)c1cc(NC(=O)c2cc(NC(=O)c3cc(NC(=O)c4cc(NC(=O)c5cc(NC(=O)CCCOc6cc7c(cc6OC)C(=O)N6CCC[C@H]6C=N7)cn5C)cn4C)cn3C)cn2C)cn1C` [Compound 29, (11aS) Methyl 4-({4-[(4-{[4-({4-[4-(7-Methoxy-5-oxo-2,3,5,11a-tetrahydro-5H-pyrrolo[2,1-c][1,4]benzodiazepine-8-yloxy)-butyrylamino]-1-methyl-1H-pyrrole-2-carbonyl]-amino)-1-methyl-1H-pyrrole-2-carbonyl]-amino}-1-methyl-1H-pyrrole-2-carbonyl)-amino]-1-methyl-1H-pyrrole-2-carbonyl}-amino)-1-methyl-1H-pyrrole-2-carboxylate] returned an IC50 of 83 nM. Also, in the assay with calf thymus DNA (CT-DNA), the “Induced ΔTm after incubation 0 hours” value was found to be 15.1 °C, the “Induced ΔTm after incubation 4 hours” value was 15.9 °C and the “Induced ΔTm after incubation 18 hours” value worked out at 17.1 °C.
With `COC(=O)c1cc(NC(=O)c2csc(NC(=O)c3cc(NC(=O)CCCOc4cc5c(cc4OC)C(=O)N4CCC[C@H]4C=N5)cn3C)n2)cn1C` [Compound 73], in the assay on calf thymus DNA (CT-DNA), the “Induced ΔTm after incubation 0 hours” value came out at 18.5 °C, the “Induced ΔTm after incubation 4 hours” value came to 19.9 °C and the “Induced ΔTm after incubation 18 hours” value was 20.7 °C. Moreover, in the assay on calf thymus DNA (CT-DNA) (pH 7.00, 72 hours), the “Induced ΔTm after incubation 72 hours” value was 20.9 °C. Further, in assay [3] (ICB1 site), the “Concentration at which DNA binding is observed, ICB1” value is 5 µM. The “Concentration at which DNA binding is observed, ICB2” value in assay [3] (ICB2 site) stood at 1 µM. For the same compound, the “Lowest concentration at which NF-Y binding inhibition was observed” value in assay [4] worked out at 10 µM.

(Values after US8637664B2, “Alkyl 4- [4- (5-oxo-2,3,5, 11a-tetrahydo-5H-pyrrolo [2, 1-c] [1,4] benzodiazepine-8-yloxy)-butyrylamino]-1H-pyrrole-2-carboxylate derivatives and related compounds for the treatment of a proliferative disease” (Spirogen SARL, priority 2005, dated 2014).)
